From paper PMC5569447 (Iranian Journal of Basic Medical Sciences, 2017)
Peptide text beside a SMILES is read from it.

System: Mtb strain H37Rv ATCC 27294
Conditions: 24 h

`NC(=O)CC[C@H](NC(=O)[C@@H]1CCCN1C(=O)[C@@H]1CCCN1)C(=O)O` [PPQ] (H-Pro-Pro-Gln-OH) was tested, and the “MABA MIC” value was greater than 800 µM.
